Measurements: patent US4267102A, “Bleomycin group antibiotics” (Nippon Kayaku Kabushiki Kaisha, priority 1979, dated 1981)
Where “and” joins values, the source holds several entries; their conditions need not be identical. Identical values can stand only once.

Columns and labels:
[1] = system: HeLa S3 cells; assay: Growth inhibitory effect on cultured HeLa cells; assay type: cell-based; details: Cu-free; three days cultivation with sample
Method: 3. Growth inhibitory effect on cultured HeLa cells.
HeLa S3 cells were inoculated into a medium (MEM with the addition of 10% calf serum) in a plastic Petri dish. After two days from the inoculation, N-methylbleomycinic acid or a N-methylbleomycin was added to the dish and after cultivation for further three days, the number of cells was counted. The growth inhibition (%) was calculated by the following equation: [formula] where A is the final number of cells on the third day from the addition of the test sample, B the final number of cells in a control culture without the addition of the test sample, and C the number of cells at the time of addition of the test sample. The value of ID50 (concentration for 50% inhibition) was calculated from the graph obtained by plotting the concentration of sample against the growth inhibition. A similar test was performed on bleomycinic acid and bleomycins used as control.

[2] = system: Mycobacterium smegmatis ATCC 607; assay: Antimicrobial activity against Mycobacterium smegmatis ATCC 607 (cylinder agar plate method); assay type: cell-based
Method: 4. Antimicrobial activity against Mycobacterium smegmatis ATCC 607.
The antibacterial activity was assayed by the cylinder agar plate method against the above bacterium by assuming the activity of standard copper-free bleomycin A2 to be 1,000 mcg units/mg.
Note: Antimicrobial activity was assayed against Mycobacterium smegmatis ATCC 607 by assuming the activity of bleomycin A2 (copper-free form) to be 1,000 mcg units/mg. The same shall apply hereinafter.

[3] = system: DNA labelled with tritium; assay: DNA-strand cleaving activity in cell-free system; assay type: biochemical; details: copper-free compound with divalent iron, oxygen, 37° C., 5 minutes
Method: 2. DNA-strand cleaving activity in cell-free system.
The mechanism of carcinostatic action of bleomycins has been believed to involve the cleavage of DNA chain caused by the joint action of copper-free bleomycins, divalent iron and molecular oxygen. Similar activity of N-methylbleomycins were also confirmed.
A mixture of divalent iron and a copper-free N-methylbleomycin was dissolved together with DNA labelled with tritium in a M/10 phosphate buffer of pH 7.4 The resulting solution was allowed to react in the presence of oxygen at 37° C. for 5 minutes. To the reaction mixture, was added 25% trichloroacetic acid. The precipitate was removed by centrifugation and the supernatant (acid-soluble fraction) was assayed for radioactivity to obtain the percentage of acid-soluble DNA in acid. This percentage was utilized as an index of the degree of DNA-strand cleavage. Similar test was repeated on bleomycins A2 and B2 used as reference.

[4] = biological target: inactivating enzyme (Rattus norvegicus, UniProt P70645); details: rat liver extract, 37° C., 15, 30, 60 and 120 minutes; residual activity against Mycobacterium smegmatis ATCC 607
inactivating enzyme, sequence (P70645 whole entry): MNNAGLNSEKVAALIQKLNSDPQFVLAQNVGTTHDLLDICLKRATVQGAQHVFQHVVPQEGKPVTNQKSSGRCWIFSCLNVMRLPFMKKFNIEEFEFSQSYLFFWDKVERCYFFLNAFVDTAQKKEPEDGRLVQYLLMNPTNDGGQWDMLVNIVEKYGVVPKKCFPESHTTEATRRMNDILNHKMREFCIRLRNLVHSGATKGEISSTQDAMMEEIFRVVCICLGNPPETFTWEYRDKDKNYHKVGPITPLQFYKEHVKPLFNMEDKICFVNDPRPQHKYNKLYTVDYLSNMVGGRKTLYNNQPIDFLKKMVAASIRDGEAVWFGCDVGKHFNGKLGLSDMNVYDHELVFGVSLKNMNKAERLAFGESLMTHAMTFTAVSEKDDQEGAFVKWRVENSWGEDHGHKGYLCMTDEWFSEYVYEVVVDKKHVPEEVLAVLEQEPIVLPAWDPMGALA
Method: Test for resistance to inactivating enzyme.
(1) Extraction of inactivating enzyme.
The liver of female Donryu strain rat was ground in twice by weight of M/15 phosphate buffer of pH 7.2 to prepare a tissue emulsion. The emulsion was centrifuged at 105,000×G for 60 minutes and the supernatant was dialyzed with the above buffer. A high molecular fraction thus obtained was used as the extract solution of an inactivating enzyme.
(2) Examination of inactivating reaction.

[5] = Table 6, Cu-complex, standard copper-free bleomycin A2 assumed 1,000 mcg units/mg
[6] = Table 6, Cu-free, standard copper-free bleomycin A2 assumed 1,000 mcg units/mg
[7] = sample concentration 6.25 mcg/ml
[8] = sample concentration 12.5 mcg/ml
[9] = Examples, step A product: copper complex hydrochloride, bleomycin A2 (copper-free form) assumed 1,000 mcg units/mg
[10] = Examples, step B product: copper-free hydrochloride, bleomycin A2 (copper-free form) assumed 1,000 mcg units/mg

Compound | 50% growth inhibitory concentration (ID50) against cultured HeLa S3 cells [1] [µg/mL] | Antimicrobial activity [2, 5] | Antimicrobial activity [2, 6] | Acid-soluble DNA (%) [3, 7] [%] | Acid-soluble DNA (%) [3, 8] [%] | Acid-soluble DNA (%) ([3]; sample concentration 25 mcg/ml) | Antimicrobial activity [2, 9] | Antimicrobial activity [2, 10] | Resistance to inactivating enzyme (residual activity with reaction time, FIGS. 1 to 6) [4]
Cc1c(N)nc(C(CC(N)=O)NCC(N)C(N)=O)nc1C(=O)NC(C(=O)NC(C)C(O)C(C)C(=O)NC(C(=O)NCCc1nc(-c2nc(C(=O)NCCCNC(C)c3ccccc3)cs2)cs1)C(C)O)C(OC1OC(CO)C(O)C(O)C1OC1OC(CO)C(O)C(OC(N)=O)C1O)c1c[nH]cn1 [3-[(S)-1'-phenylethylamino]propylaminobleomycin, reference compound] | 0.52 |  |  |  |  |  |  |  | 
3-(3-n-butylaminopropylamino)propylamino-N-methylbleomycin [Compound (6)] | 0.37 | 3,695 mcg units/mg | 3,438 mcg units/mg | 59.5 | 94.0 | 100.4 |  |  | 
N-methylbleomycin A2 [Compound (2)] | 0.81 | 423 mcg units/mg | 513 mcg units/mg | 64.6 | 90.7 | 99.9 | 520 mcg units/mg and 516 mcg units/mg and 507 mcg units/mg | 418 mcg units/mg and 427 mcg units/mg and 420 mcg units/mg | 
Cc1c(N)nc([C@H](CC(N)=O)NC[C@H](N)C(N)=O)nc1C(=O)N[C@H](C(=O)N[C@H](C)[C@@H](O)[C@H](C)C(=O)N[C@H](C(=O)NCCc1nc(-c2nc(C(=O)NCCCN)cs2)cs1)[C@@H](C)O)[C@@H](O[C@@H]1O[C@@H](CO)[C@@H](O)[C@H](O)[C@@H]1O[C@H]1O[C@H](CO)[C@@H](O)[C@H](OC(N)=O)[C@@H]1O)c1cnc[nH]1 [Bleomycin A2 -b, bleomycin A2 '-b, reference compound] | 1.5 |  |  |  |  |  |  |  | 
Cc1c(N)nc(C(CC(N)=O)NCC(N)C(N)=O)nc1C(=O)NC(C(=O)NC(C)C(O)C(C)C(=O)NC(C(=O)NCCc1nc(-c2nc(C(=O)O)cs2)cs1)C(C)O)C(OC1OC(CO)C(O)C(O)C1OC1OC(CO)C(O)C(OC(N)=O)C1O)c1cnc[nH]1 (centres unmarked) [Bleomycinic acid, reference compound] | 18 |  |  |  |  |  |  |  | markedly susceptible
3-[(S)-1'-phenylethylamino]propylamino-N-methylbleomycin [Compound (5)] | 0.30 | 4,266 mcg units/mg | 4,333 mcg units/mg | 70.1 | 92.6 | 100.5 | 4,320 mcg units/mg | 4,280 mcg units/mg | 
N-methylbleomycin B2 [Compound (3)] | 0.35 | 1,755 mcg units/mg | 1,766 mcg units/mg | 87.6 | 95.5 | 102.1 | 1,758 mcg units/mg and 1,770 mcg units/mg | 1,752 mcg units/mg and 1,756 mcg units/mg | 
3-(3-n-butylaminopropylamino)propylaminobleomycin [reference compound] | 0.43 |  |  |  |  |  |  |  | 
N-methylbleomycinic acid [Compound (1)] | 4.8 | 64 mcg units/mg | 59 mcg units/mg |  |  |  |  |  | 
N-methylbleomycin A2 '-b [Compound (4)] | 0.58 | 625 mcg units/mg | 595 mcg units/mg | 61.7 | 94.1 | 99.4 |  | 618 mcg units/mg | 
Cc1c(N)nc([C@H](CC(N)=O)NC[C@H](N)C(N)=O)nc1C(=O)N[C@H](C(=O)N[C@H](C)[C@@H](O)[C@H](C)C(=O)N[C@H](C(=O)NCCc1nc(-c2nc(C(=O)NCCC[S+](C)C)cs2)cs1)[C@@H](C)O)[C@@H](O[C@@H]1O[C@@H](CO)[C@@H](O)[C@H](O)[C@@H]1O[C@H]1O[C@H](CO)[C@@H](O)[C@H](OC(N)=O)[C@@H]1O)c1c[nH]cn1.[Br-] [Bleomycin A2, reference compound] | 0.73 |  |  | 78.6 | 90.8 | 100.9 |  |  | 
Bleomycin B2 [reference compound] | 0.80 |  |  | 85.6 | 95.8 | 98.2 |  |  | 
